# Test results as given in US9803021B2 (The Regents of the University of California, priority 2012, dated 2017).
# Entries after “also recorded” stand apart in the source; their conditions may differ.
# Tests used:
# OCI-My 5 tumors = experiment: OCI-My5 xenograft model in SCID mice; type: in vivo, mouse; conditions: OCI-My5 s.c.
# Text: Eight mice were included in each group.
# Each group consisted of eight mice.
# U266 [1] = experiment: Cell cycle analysis (PI DNA content, flow cytometry); type: cell-based, human; conditions: U266, 500 pM, 4 days
# Method: (§1) Cells were incubated with 1 ml of hypotonic DNA staining buffer (1 mg/ml sodium citrate, 100 μg/ml PI, 20 μg/ml RNase A, and 0.3% Triton X-100 in dH2O) for 30-60 min at 4° C. in the dark. Cells were analyzed by flow cytometry and cell cycle analysis performed using FlowJo software with the Watson Model.
# (§2) Cells were incubated with 1 ml of hypotonic DNA staining buffer (1 mg/ml sodium citrate, 100 μg/ml PI, 20 μg/ml RNase A, and 0.3% Triton X-100) for 30-60 minutes at 4° C. in the dark. Cells were analyzed by flow cytometry and cell cycle analysis performed using FlowJo software with the Watson Model.
# ANBL-6 [2] = experiment: as above; type: cell-based, human; conditions: ANBL-6, 500 pM, 4 days
# Method: as §1, §2
# MM1-144 [3] = experiment: Ki-67 stain (flow cytometry); type: cell-based, human; conditions: MM1-144, 500 pM, 3 days
# Method: (§3) Senescence induced β-galactosidase (β-gal) activity was detected as described previously (Debacq-Chainiaux et al. (2009) Nat. Protoc., 4: 1798-1806) and in Supplemental methods. To detect Ki-67 protein, cells were stained and analyzed by flow cytometry as described in Supplemental methods.
# (§4) After treatment, cells were fixed with methanol on ice and then incubated with anti-Ki-67 rabbit IgG (Abcam). Cells were then stained with anti-rabbit IgG-FITC (Sigma) and analyzed by flow cytometry.
# NCI-H929 [4] = experiment: Ki-67 stain (flow cytometry); type: cell-based, human; conditions: NCI-H929, 500 pM, 3 days
# Method: as §3, §4
# Delta 47 = experiment: MTS assay (cell viability / metabolic activity); type: cell-based, human
# Method: (§5) Percent cell viability was determined using MTS solution (Promega, Madison, Wis.) by measuring absorbance at 490 nm using a Synergy HT Multi-Detection Microplate Reader (BioTek Instruments, Inc., Winooski, Vt.) with untreated cells being 100%. GraphPad Prism (GraphPad Software Inc., La Jolla, Calif.) was used to analyze data by non-linear regression with the log (inhibitor) vs. the response with a variable slope with the IC50 calculated. Data are expressed as a percentage of maximum metabolic activity. The experiments were performed in triplicate.
# (§6) To determine if the HMCLs were sensitive to treatment with IFNα fusion protein, HMCLs were incubated with varying concentrations of anti-CD138-IFNα, and cell viability was assessed. Anti-CD138-IFNα was used to target IFNα to the MM cell lines while anti-CD20-IFNα was used as an untargeted control. After 3 days of treatment, cell viability was measured by MTS activity. The MM cell lines differed in their response to treatment with the fusion proteins.
# S6B45 = experiment: MTS assay (cell viability / metabolic activity); type: cell-based, human; conditions: S6B45, 3 days
# Method: as §5, §6
# XG-2 = experiment: MTS assay (cell viability / metabolic activity); type: cell-based, human; conditions: XG-2, 3 days
# Method: as §5, §6
# OPM-1 = experiment: MTS assay (cell viability / metabolic activity); type: cell-based, human
# Method: as §5, §6
# 8226/Dox40 = experiment: MTS assay (cell viability / metabolic activity); type: cell-based, human; conditions: 8226/Dox40, 3 days
# Method: as §5, §6
# XG-1 = experiment: MTS assay (cell viability / metabolic activity); type: cell-based, human; conditions: XG-1, 3 days
# Method: as §5, §6
# [5] = system: primary myeloma cells from patients; experiment: Treatment of primary myeloma cells from patients (trypan blue / MTT); type: cell-based, human
# Method: Trypan blue and MTT assays were used to determine the number of viable cells. The percentage of viable recovered cells was calculated based upon the number of viable cells recovered from DMSO-treated control cells, which was arbitrarily designated as 100%.
# Percent viable cell recovery was determined by trypan blue staining, with untreated control cells designated as 100%.
# OCI-My 5 cells = experiment: Cell proliferation assay (3[H]-thymidine incorporation); type: cell-based, human; conditions: OCI-My 5, 0.3 pM-25 nM, 3 days
# Method: The proliferative status of the cells was determined by measuring ^3[H]-thymidine incorporation.
# U266 [6] = experiment: Senescence induced β-gal activity at pH 6 (C12FDG, flow cytometry); type: cell-based, human; conditions: U266, 1 nM, 3 days
# Method: (§7) Senescence induced β-galactosidase (β-gal) activity was detected as described previously (Debacq-Chainiaux et al. (2009) Nature Protocols, 4: 1798-1806). […] To induce lysosomal alkalinization, cells were incubated in 100 nM bafilomycin A1 (Sigma) for 1 h. Then cells were incubated for 30 min with the β-gal substrate dodecanoylaminofluorescein di-β-D-galactopyranoside (C12FDG; Invitrogen), which becomes fluorescent after cleavage by β-gal. After washing twice with cold PBS, cells were resuspended in cold PBS containing 1 mM phenylethyl thiogalactoside (PETG), a β-gal inhibitor, and analyzed by flow cytometry for C12-fluorescein.
# (§8) Intracellular β-galactosidase (β-gal) activity was measured as an indicator for replicative senescence. […] After treatment, cells were incubated with 100 nM bafilomycin A1 (Sigma) for 1 hour to induce lysosomal alkalinization. Then cells were incubated for 30 minutes with the 33 μM of β-gal substrate dodecanoylaminofluorescein di-β-D-galactopyranoside (C12FDG; Invitrogen), which becomes fluorescent after cleavage to C12-fluorescein. After washing twice with cold PBS, cells were resuspended in cold PBS containing 1 mM phenylethyl thiogalactoside (PETG), a β-gal inhibitor, and analyzed by flow cytometry for C12-fluorescein.
# MM1-144 [7] = experiment: as above; type: cell-based, human; conditions: MM1-144, 1 nM, 3 days
# Method: as §7, §8
# NCI-H929 [8] = experiment: as above; type: cell-based, human; conditions: 1 nM, 3 days, listed as anti-CD138-IFNα2
# Method: as §7, §8
# ANBL-6 [9] = experiment: as above; type: cell-based, human; conditions: ANBL-6, 1 nM, 3 days (data not shown)
# Method: as §7, §8
# OCI-My5 = experiment: as above; type: cell-based, human
# Method: as §7, §8
substance,measurement,setting,value
"anti-CD138-IFNα: Fusion protein: murine B-B4 anti-CD138 variable regions, human IgG1κ constant regions, human IFNα2 fused to the antibody C-terminus via SGGGGS linker","survival / protection, result in words","OCI-My 5 tumors; 100 μg i.v. on days 14, 16, 18",significant increase in survival
same,"survival / protection, result in words","OCI-My 5 tumors; 100 μg i.v. on days 14, 16, 18, listed as anti-CD138-IFNα2",greater protection
same,% G1,U266 [1],53.9%
same,% G2/M,U266 [1],15.1%
same,% S,U266 [1],21.4%
same,>G2,U266 [1],5.5%
same,Sub G0/G1,U266 [1],13.2%
same,% G1,ANBL-6 [2],63.6%
same,% G2/M,ANBL-6 [2],18.0%
same,% S,ANBL-6 [2],14.0%
same,>G2,ANBL-6 [2],0.0%
same,Sub G0/G1,ANBL-6 [2],19.6%
same,"Ki-67 negative (non-dividing) cells, result in words",MM1-144 [3],more Ki-6T cells as compared to untreated control
same,"Ki-67 negative (non-dividing) cells, result in words",NCI-H929 [4],more Ki-6T cells as compared to untreated control
same,"cell viability (MTS assay), result in words","Delta 47; Delta 47, 3 days",little or no effect
same,"cell viability (MTS assay), result in words","Delta 47; Delta 47, treatment increased to 4 days (data not shown)",decrease in viability
same,"cell viability (MTS assay), result in words",S6B45,intermediate effect
same,"cell viability (MTS assay), result in words",S6B45; listed as Anti-CD138-IFNα2,some effect was observed only at high concentrations
same,"cell viability (MTS assay), result in words",XG-2,little or no effect
same,"cell viability (MTS assay), result in words","OPM-1; OPM-1, 3 days",little or no effect
same,"cell viability (MTS assay), result in words","OPM-1; OPM-1, treatment increased to 4 days (data not shown)",decrease in viability
same,"cell viability (MTS assay), result in words",8226/Dox40,intermediate effect
same,"cell viability (MTS assay), result in words",8226/Dox40; listed as Anti-CD138-IFNα2,some effect was observed only at high concentrations
same,"cell viability (MTS assay), result in words",XG-1,little or no effect
same,"viability of primary myeloma cells, result in words","[5]; 25 nM, 72 h",little effect
same,"viability of primary myeloma cells, result in words","[5]; 100 nM, 72 hours",significantly reduce cell viability
same,"proliferation (3[H]-thymidine incorporation), result in words",OCI-My 5 cells,greater effect than IFNα alone
same,"β-gal activity at pH 6 (senescence), result in words",U266 [6],no increase under any conditions
same,"β-gal activity at pH 6 (senescence), result in words",MM1-144 [7],increases in β-gal activity
same,"β-gal activity at pH 6 (senescence), result in words",NCI-H929 [8],increases in β-gal activity; also recorded: greater effect than with IFNα2 alone
same,"β-gal activity at pH 6 (senescence), result in words",ANBL-6 [9],no increases
same,"β-gal activity at pH 6 (senescence), result in words","OCI-My5; OCI-My5, 1 nM, 3 days (also 4, 6, 7 days)",little or no increase in β-gal activity
same,Mode of Action of anti-CD138-IFNα fusion,"OCI-My5; OCI-My 5, footnote †",senescence†
